Values quoted from earlier work, collected in patent publication US7622592B2, “Carbonylamino-benzimidazole derivatives as androgen receptor modulators” (Merck & Co., Inc., priority 2002, dated 2009).

Settings: after 7 years of treatment

NCCCC(O)(P(=O)(O)O)P(=O)(O)O [alendronate, 4-amino-1-hydroxybutylidene-1,1-bisphosphonic acid]
increase in spinal BMD: 11
